Results: paper PMC7422936 (European journal of medicinal chemistry, 2020)
Values joined by “and” are separate entries in the source; they are usually repeats but may differ in a detail not shown here. Identical values can stand only once. Like-named read-outs stand apart in the source and are kept apart here.

Experiments:
[1] = system: carrageenan-induced paw edema; assay: Carrageenan-induced mouse paw edema model; type: in vivo
[2] = target: CXCR4 (Homo sapiens, UniProt P61073); assay: In vitro binding assay
Chain of CXCR4 (P61073 whole entry): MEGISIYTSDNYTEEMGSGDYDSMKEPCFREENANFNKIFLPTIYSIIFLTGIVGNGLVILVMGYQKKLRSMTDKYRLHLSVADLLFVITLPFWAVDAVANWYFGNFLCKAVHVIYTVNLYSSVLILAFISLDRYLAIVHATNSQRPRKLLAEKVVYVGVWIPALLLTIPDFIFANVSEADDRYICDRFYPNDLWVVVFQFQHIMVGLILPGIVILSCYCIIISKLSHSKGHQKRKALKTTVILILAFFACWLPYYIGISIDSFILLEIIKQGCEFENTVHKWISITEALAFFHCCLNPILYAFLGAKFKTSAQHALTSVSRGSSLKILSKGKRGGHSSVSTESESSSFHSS

Row | SMILES | Reduction of edema (paw) weight ([1]; 10 mg/kg i.p. once daily, 74 h after carrageenan, n = 5, versus untreated mice) | Histology / immunohistochemistry of paw tissue ([1]; 10 mg/kg i.p., H&E and anti-CXCR4 staining) | EC50 [2] [nM] | IC50 [2] [nM] | EC50 ([2]; read-out: Binding Affinity (EC), EC = concentration at which the compound blocks > 50% of rhodamine Red X-TN14003, MDA-MB-231 cells, tested at 1, 10, 100, 1000 nM) [nM]
1 | N=C(N)NCCC[C@H](N)C(=O)NC1CCN(C(=O)CCn2ccc3ccncc32)CC1 [Z7R] | 50% and ~ 50% | observable decrease in the number of inflammatory cells | 1 | 1.25 | 
2 | NC(C(=O)NC1CCN(C(=O)CCn2ccc3ccncc32)CC1)c1ccccc1 (centres unmarked) [ZINC72372983] |  |  |  |  | 100
